Source: paper PMC6222558, “Synthesis and Evolution of Berberine Derivatives as a New Class of Antiviral Agents against Enterovirus 71 through the MEK/ERK Pathway and Autophagy” (Molecules : A Journal of Synthetic Chemistry and Natural …, 2018)
Counter-ions that a name gives are not always drawn. Like-named read-outs stand apart in the source and are kept apart here. Blank lines part the entries; values can stand above or below the compound they belong to.

How the values were obtained:
[1] = system: Vero cells; assay: Cytotoxicity assay (CCK) in Vero cells; format: cell-based, African green monkey; settings: for TC50 (median toxic concentration): African green monkey, 48 h
Experimental: (§1) Vero cells were purchased from the American Type Culture Collection (ATCC, […], MD, USA), and were cultured in Minimum Essential Medium (MEM) supplemented with 10% fetal bovine serum (FBS) (GIBCO, Grand Island, NY, USA) and antibiotics (100 U/mL penicillin and […] streptomycin) at 37 °C in a 5% CO2 incubator. EV71 strain SHZH98 isolated from the throat swab sample of an HFMD case occurring in 1998 in China was kindly provided by Dr. Qi Jin (Institute of Pathogen Biology, Chinese Academy of Medical Science and Peking Union Medical School, Beijing, China), and JS-52 strain was a kind gift from Dr. Xiangzhong Ye (Beijing Wantai Biological Pharmacy Enterprise Co., Ltd., Beijing, China). The EV71 BrCr and H strains were purchased from the ATCC. All of EV71 strains were passaged in Vero cells.
Cytotoxicity of all target compounds in Vero cells was analyzed by CCK (TransGen Biotech, Beijing, China) assay. In brief, cells in exponential phase (3 × 10^4 cells/well) were seeded into 96-well culture plates and incubated overnight. Then, the medium was removed and different concentrations of all target compounds were applied in duple. After 48 h incubation, the cytotoxicity of all target compounds was determined by CCK assay. The signals were read at 450 nm on Enspire (Perkin Elmer, Waltham, MA, USA). The TC50 was defined as the concentration that inhibits 50% cellular growth in comparison with the controls. It is calculated by the Reed and Muench method.

[2] = system: EV71 BrCr strain (VR-1775, genotype A); assay: CPE inhibition assay for anti-EV71, BrCr strain; format: cell-based, enterovirus 71 (EV71); settings: Enterovirus A, read-out: BrCr Strain IC50
Experimental: (§2) Thus, all newly synthesized BBR analogues were screened for their anti-EV71 potencies in African green monkey kidney (Vero) cells taking BBR as the positive control. EV71 strains used in the present study include different genotype strains, such as H strain (VR-1432, genotype C2), BrCr strain (VR-1775, genotype A), and JS-52 and SHZH98 (genotype C4). The potency against EV71 strains above mentioned of each tested compound was evaluated by the combination of its IC50 and selectivity index (SI) value as the important therapeutic indication.
as §1
(§3) The anti-EV71 activities of all tested compounds were detected by the virus-induced CPE assay. Briefly, cells (3 × 10^4 cells/well) were plated into 96-well culture plates and incubated for 16 h. Then, remove the medium and infected cells with EV71 of 100 × TCID50 (50% tissue culture infective doses) in serum-free medium for 1 h at 37 °C. After that, the unbound viruses were removed and various concentrations of tested compounds were supplemented for incubation of another 72 h. […] TC50 defined as the concentration that leads to the 50% of CPE which determined by the same method in 72 h. In addition, the cells were stained the cells were colored with 0.5% crystal violet in 20% ethanol for 15 min at room temperature and the cells were imaged after rinsed with PBS.

[3] = system: EV71 H strain (VR-1432, genotype C2); assay: CPE inhibition assay for anti-EV71, H strain; format: cell-based, enterovirus 71 (EV71); settings: for IC50: Enterovirus A, read-out: H Strain IC50; for anti-EV71 activity against H strain, in words: compared with BBR
Experimental: as §2, §1, §3

[4] = system: EV71 SHZH98 strain (genotype C4); assay: CPE inhibition assay for anti-EV71, SHZH98 strain; format: cell-based, enterovirus 71 (EV71); settings: Enterovirus A, read-out: SHZH98 Strain IC50
Experimental: as §2, §1, §3

[5] = system: EV71 JS-52 strain (genotype C4); assay: CPE inhibition assay for anti-EV71, JS-52 strain; format: cell-based, enterovirus 71 (EV71); settings: Enterovirus A, read-out: JS-52 Strain IC50
Experimental: as §2, §1, §3

[6] = EV71, Vero cells, CPE, calculated on the organic part, n = 3

Compound: COc1ccc2cc3[n+](cc2c1OCC(=O)OCC(C)C)CCc1cc2c(cc1-3)OCO2 (as salt: chloride) [2b, 2,3-Methylenedioxy-9-isobutyloxyformylmethylenoxy-10-methoxy protoberberine chloride]
- melting point: 232 to 234 °C

Compound: COc1ccc2cc3[n+](cc2c1OCC(=O)C(C)(C)C)CCc1cc2c(cc1-3)OCO2 (as salt: chloride) [2c, 2,3-Methylenedioxy-9-pivalylmethylenoxy-10-methoxy protoberberine chloride]
- melting point: 242 to 244 °C

Compound: COc1cccc(C(=O)COc2c(OC)ccc3cc4[n+](cc23)CCc2cc3c(cc2-4)OCO3)c1 (as salt: chloride) [2f, 2,3-Methylenedioxy-9-m-methoxyphenylformylmethylenoxy-10-methoxy protoberberine chloride]
- melting point: 214 to 216 °C

Compound: COc1ccc2cc3[n+](cc2c1OCC(=O)c1ccc(C(F)(F)F)cc1)CCc1cc2c(cc1-3)OCO2 (as salt: chloride) [2g, 2,3-Methylenedioxy-9-p-trifloromethylphenylformylmethylenoxy-10-methoxy protoberberine chloride]
- melting point: 238 to 240 °C

Compound: COc1ccc2cc3[n+](cc2c1OC(=O)OCc1ccccc1)CCc1cc2c(cc1-3)OCO2 (as salt: chloride) [2h, 2,3-Methylenedioxy-9-benzyloxyformyloxy-10-methoxy protoberberine chloride]
- melting point: 195 to 197 °C

Compound: CCOC(=O)Oc1c(OC)ccc2cc3[n+](cc12)CCc1cc2c(cc1-3)OCO2 (as salt: chloride) [2i, 2,3-Methylenedioxy-9-ethyloxyformyloxy-10-methoxy protoberberine chloride]
- melting point: 218 to 220 °C

Compound: COc1cc2c(cc1OC)-c1cc3ccc(OC)c(OCC(=O)C(C)(C)C)c3c[n+]1CC2 (as salt: chloride) [4b, 2,3,10-Trimethoxy-9-pivalylmethylenoxy protoberberine chloride]
- melting point: 227 to 229 °C

Compound: COc1cc2c(cc1OC)-c1cc3ccc(OC)c(OCC(=O)c4ccc(C)cc4)c3c[n+]1CC2 (as salt: chloride) [4d, 2,3,10-Trimethoxy-9-p-tolylformylmethylenoxy protoberberine chloride]
- melting point: 228 to 230 °C

Compound: CCOC(=O)COc1cc2c(cc1OC)-c1cc3ccc(OC)c(OC)c3c[n+]1CC2 (as salt: chloride) [5a, 2,9,10-Trimethoxy-3-ethyloxyformylmethylenoxy protoberberine chloride]
- melting point: 234 to 236 °C

Compound: COc1cc2c(cc1OCC(=O)OCc1ccccc1)CC[n+]1cc3c(OC)c(OC)ccc3cc1-2 (as salt: chloride) [5c, 2,9,10-Trimethoxy-3-benzyloxyformylmethylenoxy protoberberine chloride]
- melting point: 217 to 219 °C

Compound: COc1cc2c(cc1O)CC[n+]1cc3c(OC)c(OC)ccc3cc1-2 [JTH, jatrorrhizine, reference compound]
- TC50 (median toxic concentration) [1]: 255 µM
- IC50 ([2]; EV71, Vero): > 147 µM
- IC50 ([3]; EV71, Vero): > 147 µM
- anti-EV71 activity against H strain, in words ([3]; Vero cells): decreased activity
- IC50 ([4]; EV71, Vero): 147 µM
- IC50 ([5]; EV71, Vero): 147 µM

Further lines, with some results ahead:

- melting point: 219 to 221 °C
Compound: COc1ccc2cc3[n+](cc2c1OCC(=O)c1ccc(C)cc1)CCc1cc2c(cc1-3)OCO2 (as salt: chloride) [2e, 2,3-Methylenedioxy-9-p-tolylformylmethylenoxy-10-methoxy protoberberine chloride]

- melting point: 204 to 206 °C
Compound: CCOC(=O)COc1c(OC)ccc2cc3[n+](cc12)CCc1cc(OC)c(OC)cc1-3 (as salt: chloride) [4a, 2,3,10-Trimethoxy-9-ethyloxyformylmethylenoxy protoberberine chloride]

- melting point: 196 to 198 °C
Compound: COc1cc2c(cc1OC)-c1cc3ccc(OC)c(OCC(=O)OCc4ccccc4)c3c[n+]1CC2 (as salt: chloride) [4c, 2,3,10-Trimethoxy-9-benzyloxyformylmethylenoxy protoberberine chloride]

- melting point: 200 to 202 °C
Compound: COc1cccc(C(=O)COc2c(OC)ccc3cc4[n+](cc23)CCc2cc(OC)c(OC)cc2-4)c1 (as salt: chloride) [4e, 2,3,10-Trimethoxy-9-m-methoxyphenylformylmethylenoxy protoberberine chloride]

- melting point: 240 to 242 °C
Compound: COc1cc2c(cc1OC)-c1cc3ccc(OC)c(OCC(=O)c4ccc(C(F)(F)F)cc4)c3c[n+]1CC2 (as salt: chloride) [4f, 2,3,10-Trimethoxy-9-p-trifloromethylphenylformylmethylenoxy protoberberine chloride]

- melting point: 98 to 100 °C
Compound: COc1cc2c(cc1OC)-c1cc3ccc(OC)c(OC(=O)OCc4ccccc4)c3c[n+]1CC2 (as salt: chloride) [4g, 2,3,10-Trimethoxy-9-benzyloxyformyloxy protoberberine chloride]

- melting point: 223 to 225 °C
Compound: COc1cc2c(cc1OCC(=O)C(C)(C)C)CC[n+]1cc3c(OC)c(OC)ccc3cc1-2 (as salt: chloride) [5b, 2,9,10-Trimethoxy-3-pivalylmethylenoxy protoberberine chloride]

- melting point: 218 to 220 °C
Compound: COc1cc2c(cc1OCC(=O)c1ccc(C)cc1)CC[n+]1cc3c(OC)c(OC)ccc3cc1-2 (as salt: chloride) [5d, 2,9,10-Trimethoxy-3-p-methylphenylformylmethylenoxy protoberberine chloride]

- IC50 [2, 6]: 9.2 µM
- IC50 [3, 6]: 10.4 µM
- IC50 [4, 6]: 9.13 µM
- IC50 [5, 6]: 8.69 µM
Compound: COc1cccc(C(=O)COc2cc3c(cc2OC)-c2cc4ccc(OC)c(OC)c4c[n+]2CC3)c1 [5e, 2,9,10-Trimethoxy-3-m-methoxyphenylformylmethylenoxy protoberberine chloride]
- cytotoxicity, in words [1]: high cytotoxicity
- TC50 (median toxic concentration) [1]: 27.6 µM
- anti-EV71 activity against H strain, in words ([3]; Vero cells): ideal activities compared with BBR

- IC50 [2, 6]: 25.4 µM
- IC50 [3, 6]: 40.4 µM
- IC50 [4, 6]: 68.4 µM
- IC50 [5, 6]: 27 µM
Compound: COc1cc2c(cc1OCC(=O)c1ccc(C(F)(F)F)cc1)CC[n+]1cc3c(OC)c(OC)ccc3cc1-2 [5f, 2,9,10-Trimethoxy-3-p-trifloromethylphenylformylmethylenoxy protober berine chloride]
- TC50 (median toxic concentration) [1]: 143 µM
- anti-EV71 activity against H strain, in words ([3]; Vero cells): partially or completely lost

- IC50 [2, 6]: 82.8 µM
- IC50 [3, 6]: 143 µM
- IC50 [4, 6]: 86.7 µM
- IC50 [5, 6]: 51.3 µM
Compound: COc1cc2c(cc1OC(=O)OCc1ccccc1)CC[n+]1cc3c(OC)c(OC)ccc3cc1-2 [5g, 2,9,10-Trimethoxy-3-benzyloxyformyloxy protoberberine chloride]
- TC50 (median toxic concentration) [1]: 265 µM
- anti-EV71 activity against H strain, in words ([3]; Vero cells): partially or completely lost

- IC50 [2, 6]: 35.4 µM
- IC50 [3, 6]: 37 µM
- IC50 [4, 6]: 32.6 µM
- IC50 [5, 6]: 28.5 µM
Compound: COc1ccc2cc3[n+](cc2c1O)CCc1cc2c(cc1-3)OCO2 [compound 1]
- TC50 (median toxic concentration) [1]: 85.5 µM
- anti-EV71 activity against H strain, in words ([3]; Vero cells): decreased activity

- IC50 [2, 6]: 135 µM
- IC50 [3, 6]: 121 µM
- IC50 [4, 6]: 132 µM
- IC50 [5, 6]: 102 µM
Compound: COc1cc2c(cc1OC)-c1cc3ccc(OC)c(O)c3c[n+]1CC2 [compound 3]
- TC50 (median toxic concentration) [1]: 254 µM
- anti-EV71 activity against H strain, in words ([3]; Vero cells): decreased activity
